Test [1] has as its system Staphylococcus aureus ATCC 700699 (MRSA). Briefly: minimum inhibitory concentration; extreme values may be limits of the assay. The procedure, abridged: (§1)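 Broth microdilution in 96-well plates, following CLSI guidance with a resazurin redox read-out, was used to test methicillin-susceptible and methicillin-resistant Staphylococcus aureus. Compounds ranging from 0 to 100 µM were incubated with the bacteria at 37°C for 24 h, after which 30 µl of 0.015% resazurin was added for 2–4 h, and every plate carried positive controls. The minimum inhibitory concentration was taken as the lowest concentration at which wells stayed blue instead of turning pink, and runs were performed at least twice in triplicate.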

For test [2], the system named is Staphylococcus aureus ATCC 29213 (MSSA). The test is described as above. The procedure, abridged:
as §1

The results in this text go back to the supplement of paper PMC6206229.

In brackets after ≈: the same amount, converted by molar mass. Where only a bound is given, the exact number is not on record here.

As to `CCOc1ccccc1NC(C)C(=O)Nc1cc(C(F)(F)F)ccc1N1CCOCC1` (stereo not drawn), the minimum inhibitory concentration in test [1] and in test [2] was > 50 µM each time.
With `COc1cccc(OC)c1C(=O)Nc1ccc(Cl)c(-c2nc3ccccc3s2)c1`, the minimum inhibitory concentration in test [1] and in test [2] was > 50 µM in each case.
Regarding `O=C(Nc1cnc2ccccc2c1)c1cccc(-n2cnnn2)c1`, the minimum inhibitory concentration in test [1] and in test [2] was > 50 µM throughout.
On to `N#Cc1nc(-c2ccccc2)oc1S(=O)(=O)c1ccc(Cl)cc1`, for which the minimum inhibitory concentration in test [1] and in test [2] was > 50 µM each time.
As for `CN1CCN(c2nccc3nc(-c4ccc(F)c(F)c4)[nH]c23)CC1`, the minimum inhibitory concentration in test [1] and in test [2] was > 50 µM throughout.
Regarding `CC1CS(=O)(=O)CCN1/N=C/c1ccc([N+](=O)[O-])o1` (stereo not drawn), the minimum inhibitory concentration in test [1] and in test [2] was > 50 µM throughout.
With `CN(C)c1cc(NC(=O)Nc2ccccc2)c2ccccc2n1`, the minimum inhibitory concentration in test [1] and in test [2] was > 50 µM each time.
Take `O=C(Nc1cccc(Cl)c1)c1cnc(N2CCN(c3ccncc3)CC2)c(Cl)c1`: the minimum inhibitory concentration in test [1] and in test [2] was > 50 µM throughout.
For the compound `NS(=O)(=O)c1cccc(-c2ccc3ncc(N4CCOCC4)nc3c2)c1`, the minimum inhibitory concentration in test [1] and in test [2] was > 50 µM throughout.
On to `N=C(N)c1ccc(OCCCCCOc2ccc(C(=N)N)cc2)cc1`, for which the minimum inhibitory concentration in test [1] was > 50 µM; in test [2] it was 12.5 µM (≈ 4.26 µg/mL).
For the compound `Clc1ccc(Cl)c(CO[C@H]2CCCC[C@@H]2n2ccnc2)c1`, the minimum inhibitory concentration in test [1] and in test [2] was > 50 µM throughout.
With `CN(C(=O)c1cc2c(-c3cncnc3)cccc2[nH]1)c1ccccc1`, the minimum inhibitory concentration in test [1] and in test [2] was > 50 µM each time.
Take `CC(C)c1ncc(-c2ccncc2)c([C@H]2CC[C@H](CNC(=O)c3cccnc3)CC2)n1`: the minimum inhibitory concentration in test [1] and in test [2] was > 50 µM each time.
With `CCCn1c(CNc2ccccc2O)nc2ccccc21`, the minimum inhibitory concentration in test [1] and in test [2] was > 50 µM in each case.
In the case of `c1ccc(Oc2ccc(-c3cncc(-c4ccc5[nH]ccc5c4)n3)cc2)cc1`, the minimum inhibitory concentration in test [1] and in test [2] was > 50 µM in each case.
For the compound `CCN(CC)S(=O)(=O)c1ccc(C(=O)Nc2cc(C)nn2-c2nc(C)c(C)c(=O)[nH]2)cc1`, the minimum inhibitory concentration in test [1] and in test [2] was 50 µM (≈ 22.9 µg/mL) each time.
As for `COc1ccc(-c2cnc3cnc(-c4cccc(OC(C)C)c4)cn23)cc1`, the minimum inhibitory concentration in test [1] and in test [2] was > 50 µM throughout.
With `CNC(=O)C1Cc2c([nH]c3cc(Cl)ccc23)C2(CCN(CCc3ccccc3)CC2)N1` (stereo not drawn), the minimum inhibitory concentration in test [1] and in test [2] was > 50 µM in each case.
Consider `COc1ccc(-c2nnc3ccc(-c4cccc(C(C)C)c4)cn23)cc1OC`, for which the minimum inhibitory concentration in test [1] and in test [2] was > 50 µM each time.
As for `COc1ccc(N(CCc2cccc(C)n2)C(=O)C2CCCCC2)cc1`, the minimum inhibitory concentration in test [1] and in test [2] was > 50 µM throughout.
As for `Nc1ncnc2c1ncn2C[C@@H](O)[C@@H](O)C(=O)O`, the minimum inhibitory concentration in test [1] and in test [2] was > 50 µM throughout.
Regarding `CC(C)(C(=O)Nc1ccc(F)cc1)n1cc(-c2ccccc2F)cn1`, the minimum inhibitory concentration in test [1] and in test [2] was > 50 µM throughout.
Regarding `Cc1nnc(NCc2cccc(Cl)c2)c2ccccc12`, the minimum inhibitory concentration in test [1] and in test [2] was > 50 µM each time.
With `O=C(NCCc1ccccc1)c1cc(-c2cccnc2)cnc1NCC1CC1`, the minimum inhibitory concentration in test [1] and in test [2] was > 50 µM throughout.
For `O=C(Nc1ccc(N2CCNCC2)cc1)c1ccn2ncc(-c3cccc(Cl)c3)c2n1`, the minimum inhibitory concentration in test [1] and in test [2] was > 50 µM each time.
Regarding `COc1cccc(CC(=O)N2CCC(n3c(C)nc4ccc(F)cc43)CC2)c1`, the minimum inhibitory concentration in test [1] and in test [2] was > 50 µM each time.
Turning to `CCCS(=O)(=O)N1CCC(CO)(Cc2ccccc2C(F)(F)F)CC1`, the minimum inhibitory concentration in test [1] and in test [2] was > 50 µM throughout.
As for `CCc1cc(=O)n(C)c(SC(C)C(=O)Nc2ccc(F)cc2)n1` (stereo not drawn), the minimum inhibitory concentration in test [1] and in test [2] was > 50 µM each time.
`Nc1ncnc2c1c(Cc1cccc3ccccc13)nn2CC1CCNCC1`: the minimum inhibitory concentration in test [1] and in test [2] was > 50 µM in each case.
For `N#CCN(CCCCN1CCN(c2ccc(F)cc2)CC1)C(=O)OCc1ccccc1`, the minimum inhibitory concentration in test [1] and in test [2] was > 50 µM in each case.
As to `c1ccc(C[C@@H]2CN(c3nccc(Oc4ccc(-n5ccnc5)cc4)n3)CCN2)cc1`, the minimum inhibitory concentration in test [1] and in test [2] was > 50 µM throughout.
For the compound `c1ccc(-c2[nH]c3ccccc3c2C(c2ccccn2)N2CCCC2)cc1` (stereo not drawn), the minimum inhibitory concentration in test [1] and in test [2] was > 50 µM in each case.
`O=C(Nc1c(O)cccc1-c1nc2c(C(=O)O)cccc2o1)c1cc(-c2ccccc2)on1`: the minimum inhibitory concentration in test [1] and in test [2] was > 50 µM each time.
As to `CC(=O)N1CCc2cc3nc(C)cc(C)c3cc21`, the minimum inhibitory concentration in test [1] and in test [2] was > 50 µM in each case.
For `NC(CC(=O)c1ccc(Cl)cc1Cl)C(Cl)(Cl)Cl` (stereo not drawn), the minimum inhibitory concentration in test [1] and in test [2] was > 50 µM in each case.
On to `Nc1ncc(-c2cn[nH]c2)cc1-c1nc2cc(Cl)cnc2[nH]1`, for which the minimum inhibitory concentration in test [1] and in test [2] was > 50 µM in each case.
Turning to `CC(c1cc(Cl)cc(Cl)c1)N(C)c1ncc2c(N)nc(N)nc2n1` (stereo not drawn), the minimum inhibitory concentration in test [1] and in test [2] was 50 µM (≈ 18.2 µg/mL) in each case.
Take `Cc1nc(-c2ccccn2)nc(N2CCC(Cc3ccccc3)C2)c1Cl` (stereo not drawn): the minimum inhibitory concentration in test [1] and in test [2] was > 50 µM in each case.
Regarding `CC(C)(C)OC(=O)N1CCC(Cn2nc(-c3cnc4ccccc4c3)c3c(N)ncnc32)CC1`, the minimum inhibitory concentration in test [1] and in test [2] was > 50 µM throughout.
With `CCc1ccccc1-n1c(C)cn2c3c(=O)n(C(C(=O)OC)C(C)C)c(=O)n(C)c3nc12` (stereo not drawn), the minimum inhibitory concentration in test [1] and in test [2] was > 50 µM throughout.
In the case of `CO/C=C(/C(=O)OC)c1ccccc1Oc1cc(Oc2ccccc2C#N)ncn1`, the minimum inhibitory concentration in test [1] and in test [2] was > 50 µM each time.
Regarding `Nc1cccnc1Nc1ccc(Cl)cc1`, the minimum inhibitory concentration in test [1] and in test [2] was > 50 µM throughout.
On to `NC(=O)c1cc(-c2ccsc2)ccc1OCCOc1ccccc1`, for which the minimum inhibitory concentration in test [1] and in test [2] was > 50 µM each time.
On to `Cc1ccc(-c2nc(CN(Cc3ccccn3)C(C)C)cs2)o1`, for which the minimum inhibitory concentration in test [1] and in test [2] was > 50 µM in each case.
With `COc1cccc(-n2nnnc2S(=O)(=O)Cc2ccccc2)c1`, the minimum inhibitory concentration in test [1] and in test [2] was 50 µM (≈ 16.5 µg/mL) in each case.
As to `CCOc1ccc2cc(-c3nn(C(C)(C)C)c(N)c3C(N)=O)cnc2c1`, the minimum inhibitory concentration in test [1] and in test [2] was > 50 µM each time.
In the case of `c1ccc(Oc2ccc(-c3cc(CN4CCOCC4)[nH]n3)cc2)cc1`, the minimum inhibitory concentration in test [1] and in test [2] was > 50 µM throughout.
Consider `Cc1cc(C(=O)Nc2ccc(-c3ccccc3)cc2)no1`, for which the minimum inhibitory concentration in test [1] and in test [2] was > 50 µM in each case.
Take `CN1CCN(CCCOc2ncc(Nc3ncc(-c4ccc(C(F)(F)F)c(F)c4)nc3C(N)=O)cn2)CC1`: the minimum inhibitory concentration in test [1] and in test [2] was > 50 µM in each case.
`COc1cc(NC(C)CCCN)c2ncccc2c1` (stereo not drawn): the minimum inhibitory concentration in test [1] and in test [2] was > 50 µM in each case.
As to `CC(C)(C)OC(=O)N1CCN(c2nccc(-c3ccc(-c4ccc(Cl)cc4)s3)n2)CC1`, the minimum inhibitory concentration in test [1] and in test [2] was > 50 µM in each case.
Take `C[C@H]1COc2c(N3CCN(C)CC3)c(F)cc3c(=O)c(C(=O)O)cn1c23`: the results for the minimum inhibitory concentration in test [1] and in test [2] were 50 µM (≈ 18.1 µg/mL) and 0.78 µM (≈ 0.282 µg/mL), respectively.
The like results for `CCc1nc2ccc(Cl)cn2c1C(=O)NCc1ccc(N2CCC(c3ccc(OC(F)(F)F)cc3)CC2)cc1` were, in that order, > 50 µM and > 50 µM.
The like results for `COc1ccc(-c2nn(C(C)C)c3ncnc(N)c23)cc1OC` were, in that order, > 50 µM and > 50 µM.
The like results for `OCCc1ccc(Nc2nccc(-c3nnc4ccccn34)n2)cc1` were, in that order, > 50 µM and > 50 µM.
Consider `CC(C(=O)Nc1ccc2oc(-c3ccncc3)nc2c1)c1ccccc1` (stereo not drawn), for which the minimum inhibitory concentration in test [1] and in test [2] was > 50 µM in each case.
For the compound `O=C(Nc1cccnc1)c1c(O)c2cccc3c2n(c1=O)CC3`, the minimum inhibitory concentration was 50 µM (≈ 15.4 µg/mL) in test [1] and 25 µM (≈ 7.68 µg/mL) in test [2].
The corresponding values for `O=C(Cn1ccnc1[N+](=O)[O-])NCc1ccccc1` are > 50 µM and > 50 µM.
The like results for `CO[C@@H]1CN(c2ccc(C#CC3(O)CN4CCC3CC4)c(Cc3ccccc3)n2)C[C@H]1O` (stereo partly drawn) were, in that order, > 50 µM and > 50 µM.
